According to ChEMBL document CHEMBL1144949, “4-Phenyl-4H-pyrans as IK(Ca) channel blockers” (Bioorg Med Chem Lett, 2003):

Test system: C6-BU-1; call rule not given here
Test: IKCa channel inhibition was determined at 72% residual Rb+ efflux of pre loaded rat C6BU1 glioma cell in comparison with Nifedipine
Format: functional, cell-based

`CCCOC(=O)C1=C(C)OC(C)=C(C(=O)OCCC)C1c1ccc(Cl)cc1` was tested. Which IC50 did it give?
The IC50 was 1000 nM.

Test system: C6-BU-1
Test: IKCa channel inhibition was determined measuring ionomycin-induced Rb+ efflux of pre loaded rat C6BU1 glioma cell in comparison with Nifedipine
Format: functional, cell-based

For `COC(=O)C1=C(C)OC(C)=C(C(=O)OC)C1c1ccc(Cl)c(C(F)(F)F)c1`, which IC50 is on record?
The IC50 was 24 nM.

For `COC(=O)C1=C(C)OC(C)=C(C(C)=O)C1c1ccc(Cl)c(C(F)(F)F)c1` (racemic), which IC50 is on record?
The IC50 was 8 nM.

With `CC(=O)C1=C(C)OC(C)=C(C(C)=O)C1c1ccc(Cl)cc1` as the compound, how does the IC50 read?
Its IC50 is 220 nM.

How did the IC50 turn out when `COC(=O)C1=C(C)OC(C)=C(C(=O)OC)C1c1ccccc1Cl` was run?
Its IC50 is 100 nM.

`COC(=O)C1=C(C)OC(C)=C(C(=O)OC)C1c1ccccc1` was tested. Which IC50 did it give?
The IC50 was 160 nM.

For `COC(=O)C1=C(C)OC(C)=C(C(=O)OC)C1c1cccc(Cl)c1`, which IC50 is on record?
Its IC50 is 26 nM.

With `COC(=O)C1=C(C)OC(C)=C(C(=O)OC)C1c1ccc(Cl)cc1` as the compound, how does the IC50 read?
Its IC50 is 24 nM.

With `COC(=O)C1=C(C)NC(C)=C(C(=O)OC)C1c1ccccc1[N+](=O)[O-]` [NIFEDIPINE] as the compound, how does the IC50 read?
Its IC50 is 1000 nM.

For `COC(=O)C1=C(C)OC(C)=C(C(C)=O)C1c1ccc(Cl)cc1` (racemic), which IC50 is on record?
Its IC50 is 75 nM.

How did the IC50 turn out when `CCOC(=O)C1=C(C)OC(C)=C(C(=O)OCC)C1c1ccc(Cl)cc1` was run?
Its IC50 is 150 nM.

How did the IC50 turn out when `CCOC(=O)C1=C(C)OC(C)=C(C(=O)OC)C1c1ccc(Cl)cc1` (racemic) was run?
The IC50 was 35 nM.

Test system: C6-BU-1
Test: IKCa channel inhibition was determined measuring ionomycin-induced Rb+ efflux of pre loaded rat C6BU1 glioma cell in comparison with Nifedipine; NA=Inactive at 1000 nM
Format: functional, cell-based

For `CCCCOC(=O)C1=C(C)OC(C)=C(C(=O)OCCCC)C1c1ccc(Cl)cc1`, which IC50 is on record?
Its IC50 is “Not Active”.
